Assay results taken from article PMC10094048, “Synthesis and Anticancer Evaluation of 4-Anilinoquinolinylchalcone Derivatives” (International Journal of Molecular Sciences, 2023).
Counter-ions that a name gives are not always drawn. Like-named read-outs stand apart in the source and are kept apart here.

Assays:
[1] = test system: rheumatoid arthritis fibroblast-like synoviocytes; settings: cited from earlier work
[2] = test system: human retinoblastoma Y79 cell; set-up: method as in PMID 26564153; settings: 48 h XTT assay; read-out: IC50 Y79 cell proliferation; cited from earlier work
[3] = cited from earlier work
retinoblastoma cells = test system: retinoblastoma cells; set-up: method as in PMID 26564153; settings: cited from earlier work
MRC-5 = test: XTT antiproliferative assay, normal lung cells MRC-5; type: cell-based; settings: Homo sapiens, MRC5, 72 h, mean ± SD
Protocol: (§1) All the synthesized 4-anilinoquinolinylchalcone derivatives were evaluated in vitro against two cancer cells (Huh-7 and MDA-MB-231) and a non-cancer normal fibroblast lung cell line (MRC-5) using an XTT (sodium 3′-[1-(phenylamino-carbonyl)-3,4-tetrazolium}-bis(4-methoxy-6-nitro)benzene sulfonic acid hydrate) assay. The concentration that inhibited the growth of 50% of cells (IC50) was determined from the linear portion of the curve by calculating the concentration of the tested agent that reduced absorbance in treated cells, compared to control cells, by 50%. The IC50 results of these 4-anilinoquinolinylchalcone derivatives are summarized (Table 1). […] Thus, 4a was selected as a lead compound for further mechanism studies.
(§2) Cancer cells (Huh-7, MDA-MB-231) and normal lung cells (MRC-5) were purchased from Bioresources Collection and Research Center, Taiwan. Cells were maintained in the same standard medium, grown as a monolayer in DMEM (Gibco, Miami, FL, USA), and supplemented with 10% fetal bovine serum (FBS) and antibiotics, i.e., 100 IU/mL penicillin, 0.1 mg/mL streptomycin and 0.25 μg/mL amphotericin. The culture was maintained at 37 °C with 5% CO2 in a humidified atmosphere. Cells (5 × 10^3 cells/well) were treated with tested compounds for 72 h in the medium containing 10% FBS. Cell viability was quantitated with the use of sodium 3′-[1-(phenylamino-carbonyl)-3,4-tetrazolium}-bis(4-methoxy-6-nitro)benzene sulfonic acid hydrate (XTT) colorimetric assay (Biological Industries, Beit-Haemek, Israel). XTT labeling reagent (1 mg/mL) was mixed with electron-coupling reagent, following the manufacturer’s instructions, and 50 μL of the mixture was added directly to the cells. The plates were further incubated at 37 °C for 4 h. Color was measured spectrophotometrically in a microtiter plate reader at 492 nm and used as a relative measurement of viable cell numbers. After drug treatment, the viable cell number was compared to the solvent and untreated control cell number. This information was used to determine the percent of control growth as (Abtreated/Abcontrol) × 100, where Ab represents the mean absorbance (n = 3). The concentration that killed 50% of cells (IC50) was determined from the linear portion of the curve by calculating the concentration of the agent that reduced the absorbance in treated cells, compared to control cells, by 50%.

MDA-MB-231 [4] = test system: MDA-MB-231; set-up: method as in PMID 23237975; settings: value marked with footnote c; cited from earlier work
H1299 = test system: H1299; set-up: method as in PMID 23237975; settings: read-out: IC50 against the growth of H1299; cited from earlier work
SKBR-3 = test system: SKBR-3; set-up: method as in PMID 23237975; settings: read-out: IC50 against the growth of SKBR-3; cited from earlier work
Huh-7 [5] = test: XTT antiproliferative assay, Huh-7; type: cell-based; settings: Homo sapiens, 72 h, mean ± SD
Protocol: as §1, §2

MDA-MB-231 [6] = test: XTT antiproliferative assay, MDA-MB-231; type: cell-based; settings: Homo sapiens, 72 h, mean ± SD
Protocol: as §1, §2

[7] = test system: breast cancer MDA-MB-231 cells; test: Cellular ATP assay (ATPlite luminescence); type: cell-based, human; settings: MDA-MB-231, 24 h
Protocol: ATP levels are another cell viability indicator [31, 32, 33]. To further confirm the inhibition of the cell proliferative ability of compound 4a, the cellular ATP levels of breast cancer MDA-MB-231 cells were assessed (Figure 2).
Cellular ATP was determined using the ATPlite luminescence reagent (PerkinElmer Life Sciences, Boston, MA, USA). According to the user instruction, the cell lysate of treated cells was reacted with ATPlite substrate for 5 min in the dark. Finally, the luminescence was detected by a luminometer (Berthold Technologies GmbH & Co., Bad Wildbad, Germany).

[8] = test system: breast cancer MDA-MB-231 cells; test: Annexin V/7AAD apoptosis assay (flow cytometry); type: cell-based, human; settings: MDA-MB-231, 24 h, 5 and 10 μM versus control and 1 μM
Protocol: To examine the apoptosis-inducing ability of compound 4a, the annexin V/7-aminoactinomycin D (7-AAD) change in breast cancer MDA-MB-231 cells was assessed. […] Compound 4a, consisting of both versatile quinoline and chalcone moieties, was also active in inducing cancer cell apoptosis.
Annexin V/7AAD flow cytometry was a common method for detecting apoptosis. The commercial product containing annexin V-FITC (1:1000) and 7AAD (1 μg/mL) (Strong Biotech; Taipei, Taiwan) was applied to stain drug-treated cells for 1 h. Finally, these stained cells were conducted with flow cytometry (Guava easyCyte, Luminex, TX, USA).

[9] = test system: breast cancer MDA-MB-231 cells; test: ROS assay (H2DCFDA flow cytometry); type: cell-based, human; settings: MDA-MB-231, 24 h
Protocol: To evaluate the ROS-inducing ability of compound 4a, the flow cytometry-based ROS detection of breast cancer MDA-MB-231 cells was conducted.
The oxidative stress indicator, such as ROS, was selected to assess the impact of drug treatment on the change in oxidative stress. According to the manufacturer’s instructions, the ROS reacting probe 2′,7′-dichlorodihydrofluorescein diacetate (H2DCFDA) (Sigma-Aldrich) was applied to drug-treated cells. Finally, these stained cells were conducted with flow cytometry.

[10] = test system: breast cancer MDA-MB-231 cells; test: Caspase 3/7 luminescence assay; type: cell-based, human; settings: for caspase 3/7 activation: 24 h
Protocol: Using the caspase 3/7 luminescence assay, the modulating ability of breast cancer MDA-MB-231 cells on caspase 3/7 signaling with compound 4a was evaluated. […] Moreover, this caspase 3/7 activation with compound 4a was suppressed by NAC pretreatment.
Caspase 3/7 activation is the essential process for apoptosis, which was measured by the caspase-Glo® 3/7 assay (Promega; Madison, WI, USA), and its signal was read and recorded by a Luminometer (Berthold Technologies GmbH & Co., Bad Wildbad, Germany). The role of the induction of ROS affecting caspase 3/7 activity in drug-treated cells was evaluated by the 1 h pretreatment of 10 mM NAC [45, 49, 50].

[11] = test system: non-small-cell lung A549 cancer cells; settings: 48 h trypan blue exclusion assay; read-out: IC50 antiproliferation A549; cited from earlier work
MDA-MB-231 cell line = test system: MDA-MB-231 cell line; set-up: method as in PMID 31234033; settings: after 24 h of treatment; read-out: IC50 cytotoxicity on MDA-MB-231; cited from earlier work
Huh-7 [12] = test system: Huh-7; set-up: method as in PMID 31234033; settings: Chen et al.; cited from earlier work
HepG2 = test system: HepG2; set-up: method as in PMID 31234033; settings: Chen et al.; cited from earlier work
HA22T = test system: HA22T; set-up: method as in PMID 31234033; settings: Chen et al.; cited from earlier work

## O=C(/C=C/c1cc(Nc2ccc(OCc3ccccc3Cl)cc2)c2ccccc2n1)c1ccc(F)cc1 (as salt: salt) [Compound 5b, (E)-3-{4-{{4-[(2-Chlorobenzyl)oxy]phenyl}amino}quinolin-2-yl}-1-(4-fluorophenyl) prop-2-en-1-one]
other
  melting point: 192 to 193 °C

## O=C(/C=C/c1cc(Nc2ccc(OCc3ccccc3F)cc2)c2ccccc2n1)c1ccc(F)cc1 (as salt: salt) [Compound 5c, (E)-3-{4-{{4-[(2-Fluorobenzyl)oxy]phenyl}amino}quinolin-2-yl}-1-(4-fluorophenyl) prop-2-en-1-one]
other
  melting point: 207 to 208 °C

## O=C(/C=C/c1cc(Nc2ccc(OCc3cccc(Cl)c3)cc2)c2ccccc2n1)c1ccc(F)cc1 (as salt: salt) [Compound 5d, (E)-3-{4-{{4-[(3-Chlorobenzyl)oxy]phenyl}amino}quinolin-2-yl}-1-(4-fluorophenyl) prop-2-en-1-one]
other
  melting point: 172 to 173 °C

## O=C(/C=C/c1cc(Nc2ccc(OCc3cccc(F)c3)cc2)c2ccccc2n1)c1ccc(F)cc1 (as salt: salt) [Compound 5e, (E)-3-{4-{{4-[(3-Fluorobenzyl)oxy]phenyl}amino}quinolin-2-yl}-1-(4-fluorophenyl)prop-2-en-1-one]
other
  melting point: 213 to 214 °C

## COc1cccc(COc2ccc(Nc3cc(/C=C/C(=O)c4ccc(F)cc4)nc4ccccc34)cc2)c1 (as salt: salt) [Compound 5f, (E)-1-(4-Fluorophenyl)-3-{4-{{4-[(3-methoxybenzyl)oxy]phenyl}amino}quinolin-2-yl}prop-2-en-1-one]
other
  melting point: 165 to 166 °C

## O=C(/C=C/c1cc(Nc2ccc(OCc3ccc(Cl)cc3)cc2)c2ccccc2n1)c1ccc(F)cc1 (as salt: salt) [Compound 5g, (E)-3-{4-{{4-[(4-Chlorobenzyl)oxy]phenyl}amino}quinolin-2-yl}-1-(4-fluorophenyl)prop-2-en-1-one]
other
  melting point: 179 to 180 °C

## O=C(/C=C/c1cc(Nc2ccc(OCc3ccc(F)cc3)cc2)c2ccccc2n1)c1ccc(F)cc1 (as salt: salt) [Compound 5h, (E)-3-{4-{{4-[(4-Fluorobenzyl)oxy]phenyl}amino}quinolin-2-yl}-1-(4-fluorophenyl)prop-2-en-1-one]
other
  melting point: 254 to 255 °C

## COc1cc(/C=C/C(=O)c2ccc3ccccc3c2O)cc(OC)c1 [(E)-3-(3,5-dimethoxyphenyl)-1-(1-hydroxynaphthalen-2-yl) prop-2-en-1-one]
[1]
  ROS burst: evoke ROS burst

## O=C1c2cc(OCCN3CCCC3)ccc2-c2c(-c3ccc(OCCN4CCCC4)cc3)nc3ccc(OCCN4CCCC4)cc3c21 [BPIQ, 2,9-bis [2-(pyrrolidin-1-yl)ethoxy]-6-{4-[2-(pyrrolidin-1-yl)ethoxy]phenyl}-11H-indeno[1,2-c]quinolin-11-one]
[2]
  IC50: 13.6 µM
[3]
  apoptosis induction: apoptosis induction
Retinoblastoma cells
  ROS production: induces ROS production

## COc1ccc(-c2cc3ccccc3nc2/C=C/C(=O)c2ccccc2)cc1 [Compound 1, (E)-3-[3-(4-methoxyphenyl)quinolin-2-yl]-1-phenylprop-2-en-1-one]
MRC-5
  IC50: 0.66 ± 0.06 µM
MDA-MB-231 [4]
  IC50: 0.86 ± 0.07 µM
H1299
  IC50: 1.41 µM
SKBR-3
  IC50: 0.7 µM

## COc1ccc(C(=O)/C=C/c2cc(Nc3ccc(OCc4ccccc4)cc3)c3ccccc3n2)cc1 [Compound 4a, (E)-3-{4-{[4-(Benzyloxy)phenyl]amino}quinolin-2-yl}-1-(4-methoxyphenyl)prop-2-en-1-one]
Huh-7 [5]
  IC50: 1.47 ± 0.07 µM
MDA-MB-231 [6]
  IC50: 0.11 ± 0.07 µM
MRC-5
  IC50: > 20 µM
[7]
  cellular ATP levels: dose-responsive downregulation of ATP
[8]
  annexin V/7AAD apoptosis: more significant apoptosis
[9]
  ROS induction: dose-responsive induction of ROS
[10]; MDA-MB-231, 1 μM
  caspase 3/7 activation: inactive
[10]; MDA-MB-231, 5 and 10 μM
  caspase 3/7 activation: significant caspase 3/7 activation
[10]; MDA-MB-231, 1 h pretreatment of 10 mM NAC, then 4a 24 h
  caspase 3/7 activation after NAC pretreatment: suppressed

## CN(C)CCCOc1ccc(-c2nc3ccc(F)cc3c3c2-c2ccc(OCCCN(C)C)cc2C3=O)cc1 [DFIQ]
[11]
  IC50: 3.53 µM

## CS(=O)(=O)CCNCc1ccc(-c2ccc3ncnc(Nc4ccc(OCc5cccc(F)c5)c(Cl)c4)c3c2)o1 [Lapatinib]
Huh-7 [5]
  IC50: 12.5 ± 0.28 µM
MDA-MB-231 [6]
  IC50: 12.8 ± 0.91 µM
MRC-5
  IC50: > 20 µM
MDA-MB-231 cell line
  IC50: 32.5 µM
Huh-7 [12]
  IC50: 2.11 µM
HepG2
  IC50: 3.42 µM
HA22T
  IC50: 4.85 µM
